Literature values, collected in US20190274986A1, “STERILE INJECTABLE COMPOSITION COMPRISING MELPHALAN” (CADILA HEALTHCARE LIMITED, priority 2018, published 2019).
Read-outs that look alike come from different tables or passages of the source.

Assays:
[1] = not given; remark: listed apart in the source

| Molecule | Solubility (in 1 N HCl) | Solubility (in methanol) | Solubility (in water) | Dose with evidence of renal cellular toxicity ([1]; animal studies, repeated administration over 1-6 months) | Renal function on repeated administration ([1]; animal studies, repeated administration, even at much higher doses) | Renal effect in single-dose studies ([1]; animal trials, single-dose up to 2000 mg/kg i.v.) |
| --- | --- | --- | --- | --- | --- | --- |
| Cl.N[C@@H](Cc1ccc(N(CCCl)CCCl)cc1)C(=O)O [Melphalan, 4-[bis(2-chloroethyl)amino]-L-phenylalanine hydrochloride] | freely soluble | freely soluble | practically insoluble | – | – | – |
| sulfobutylether beta-cyclodextrin | – | – | – | ≥ 160 mg/kg/day | renal function was not impaired | renal tolerance |
